# Article PMC5882139, “Functional examination of novel kisspeptin phosphinic peptides” (PLoS ONE, 2018)
# Ends that are not written are not given here.
# Key:
# MMP-9 = MMP-9 activity, MMP colorimetric drug discovery kit; format: biochemical; settings: 1.3 μM, 37°C 1 hour, 412 nm; three independent experiments
# Procedure: (§1) The activity of MMPs was measured using MMP colorimetric drug discovery kits in a 96-well microtiter plate according to the manufacturer’s instructions. Different concentrations of the phosphinic peptides or 1.3 μM N-Isobutyl-N-(4-methoxyphenylsulfonyl)glycyl hydroxamic acid (NNGH), a positive inhibitor for MMPs, were, respectively, added to the assay mixtures containing MMP enzyme (MMP-2 or MMP-9; 9 mU/μL). The plates were then incubated at 37°C for 1 hour for enzyme reaction. After that, a final concentration of 100 μM colorimetric substrate (Ac-PLG-[2-mercapto-4-methyl-pentanoyl]-LGOC2H5) was added to each well and the plates were then read at 412 nm every minute for at least 20 minutes using PHERAStar FS microplate reader. The full enzyme activity (control) was measured without addition of any inhibitor or tested peptides. The reaction velocity (V) was determined by calculating the slope of the fitted line to the linear portion of the data collected. The slope of blank (without addition of MMP enzyme) was subtracted from all samples and the remaining activity of the enzyme was calculated using following formula.
# (§2) %Enzymeactivity=V(inhibitor)/V(control)*100
# (§3) Fig 7 Effect of KP phosphinic peptides on MMP-2 (A) or MMP-9 (B) enzyme activity. […] The maximum activity (control) was measured in the absence of inhibitors. […]
# MMP-2 = MMP-2 activity, MMP colorimetric drug discovery kit; format: biochemical; settings: 1.3 μM, 37°C 1 hour, 412 nm; three independent experiments
# Procedure: as §1, §2, §3
# cancer cell metastasis = settings: ref [17]; cited from earlier work
# Source text: KPs inhibit metastasis in a variety of cancers, including melanoma, breast, endometrial, gastric ovarian cancers, and others. Therefore, KP analogues may act as inhibitors of cancer metastasis which is the major cause of cancer death.
molecule,measurement,setting,value
"COc1ccc(S(=O)(=O)N(CC(=O)NO)CC(C)C)cc1 [NNGH, N-Isobutyl-N-(4-methoxyphenylsulfonyl)glycyl hydroxamic acid]",inhibition of MMP-9 activity by positive control,MMP-9,almost completely inhibited
same,inhibition of MMP-2 activity by positive control,MMP-2,almost completely inhibited
"KP-54: endogenous 54-amino acid peptide ligand of kisspeptin receptor (GTSLSPPPESSGSPQQPGLSAPHSRQIPAPQGAVLVQREKDLPNYNWNSFGLRF; ends and bridges not checked; UniProt Q15726 68-121, looked up)",inhibition of cancer cell metastasis,cancer cell metastasis,inhibit cancer cell metastasis
